Data published in patent US12194093B2, “Dosing parameters for CD47 targeting therapies to hematologic malignancies” (The Board of Trustees of the Leland Stanford Junior …, priority 2017, dated 2025).
“Also recorded” adds a separate entry of the source.

Assays:
HL60 leukemia cells = experiment: Macrophage phagocytosis of HL60 leukemia cells (flow cytometry); format: cell-based, human; settings: azacitidine 1 μM
Experimental: Macrophages were labeled with an anti-CD206 Ab and all cells were analyzed by flow cytometry to determine phagocytosis of HL60 leukemia cells. Phagocytosis of HL60 leukemia cells was determined as percentage of GFP positive, HL60 engulfing, macrophages compared to total number of macrophages. Results were normalized to the condition with maximal phagocytosis (100%).

human AML = experiment: Human AML xenograft mouse model, early death and disease clearance; format: in vivo
Source text: We have established a human AML xenograft mouse model to test CD47-SIRPalpha pathway blocking therapies.
We also observed that early death seemed to be related to burden of circulating disease, in that mice with high levels of circulating leukemia cells succumbed to early death.
The object of this study was to determine whether early death observed in AML-xenografted mice can be avoided by reducing the rate at which leukemia cells are killed. […] It was hypothesized that early death might be due either to agglutination of leukemic cells or tumor lysis, and that early death may be avoided by reducing the rate at which leukemia cells are killed.
All mice in the control group continuously progressed and died.

AML [1] = experiment: Pre-clinical models, trough level and anti-leukemic activity; format: in vivo
Experimental: (§1) This trough level served as the minimum trough level target to guide dosing in the Phase 1 trial. […] Rapid peaks and troughs observed were consistent with target-mediated disposition due to non-linear saturation of the CD47 sink. […] Dose levels of 10 mg/kg or greater (Cohorts 3 and 4) achieve target trough levels by about 4 weeks, which is the time of first response assessment.
(§2) Prospective testing of AML patients' molecular, chromosomal, and phenotypic characteristics by DNA sequencing, cytogenetic analysis/fluorescence in situ hybridization (FISH), and flow cytometry, can lead to identification of patients with greater responses to Hu5F9-G4.

[2] = AML Phase 1 trial, serum concentrations of Hu5F9-G4; format: in vivo, human; settings: patients
Experimental: as §1

AML [3] = experiment: AML Phase 1 trial, clinical response; format: in vivo, human
Experimental: as §1
Several additional factors are notable for these patients with biologic activity.

[4] = system: bone marrow macrophages and T cells; experiment: Immunohistochemistry of macrophages and T cells in patient bone marrow; format: in vivo, human; settings: patient with partial response
Experimental: In one patient that obtained a partial response, macrophage and T cell infiltrates in the bone marrow was assessed.

circulating WBC = experiment: AML Phase 1 trial, cytoreduction with concomitant Hu5F9-G4, safety; format: in vivo, human; settings: any patients treated on Phase 1 trial
myeloid mutations = experiment: Targeted DNA sequencing of myeloid mutations in Phase 1 AML patients; format: in vivo, human; settings: Phase 1 AML patients receiving Hu5F9-G4
Source text: as §2

Nc1ncn([C@@H]2O[C@H](CO)[C@@H](O)[C@H]2O)c(=O)n1 [Azacitidine]
phagocytic elimination of HL60 leukemia cells by human macrophages (HL60 leukemia cells): did not enhance

Hu5F9-G4: a humanized anti-CD47 antibody
effect of intra-subject dose escalation (low doses first, then higher doses) (human AML; AML xenografted mice with high circulating burden): prevented early mortality but also resulted in safe clearance of leukemic cells
clearance of disease (human AML; Cohort I, 100 μg/day for 14 days, sole surviving mouse): disease was cleared
clearance of disease (human AML; Cohort III, 7 doses of 1 μg, 7 doses of 10 μg, 14 doses of 100 μg): noticeably diminished
relapse (human AML; Cohort III, after end of treatment): relapsed several weeks after the end of treatment
effect of retreatment after relapse (human AML; groups that received dose-escalating regimen): cleared the disease and led to long-term disease free survival in some cases
early death (human AML; initial dose 1 μg (Cohort III)): no early deaths and None
early death (human AML; initial dose 10 μg (Cohort II)): 1 of 5 and One mouse out of five
early death (human AML; initial dose 100 μg (Cohort I)): Four out of five
survival of subsequent doses (human AML; mouse, in vivo): remaining four mice survived
time to death after administration of the first dose (human AML; xenografted mice with very high circulating AML burden (>50% of total WBC) and marrow infiltration): ≤ 1 h
pre-clinical activity across AML subtypes (AML [1]; monotherapy, cytogenetic, molecular, phenotypic/morphologic subtypes): monotherapy activity across a wide range of cytogenetic, molecular, and phenotypic AML subtypes; also recorded: broad pre-clinical activity across AML morphologic, molecular, and cytogenetic subtypes
activity in relation to tumor burden (AML [1]; pre-clinical and initial clinical studies): enhanced activity in lower tumor burden of disease
trough level associated with efficacy (AML [1]; pre-clinical models): ≥ 100 µg/mL
achievement of target trough levels (100 μg/ml) ([2]; dose levels 3 mg/kg or less (Cohorts 1 and 2)): did not achieve target trough levels
time to achieve target trough levels (100 μg/ml) ([2]; dose levels of 10 mg/kg or greater (Cohorts 3 and 4)): about 4 weeks
blast reduction (AML [3]; Cohort 3, one patient with partial response): > 50%
RBC transfusion requirements (AML [3]; Cohort 3, patient with partial response, month 3 and beyond of treatment): from approximately every week prior to treatment to once a month
duration of response (AML [3]; Cohort 3, patient with partial response, ongoing): over 6 months
patients exhibiting biologic antileukemic activity (AML [3]; maximum of 10 mg/kg twice weekly (Cohort 3)): two out of three
response to therapy (AML [3]; patients, at or below 3 mg/kg (Cohorts 1 and 2)): not expected nor observed
macrophages present in the marrow (CD68 or CD163 staining) ([4]; week 4 of treatment): significant number of macrophages
T cell infiltrates, of all bone marrow cells ([4]; week 8 of therapy, baseline 10-15% or 15%): 40-50%
acute death related to Hu5F9-G4 (circulating WBC): No acute death
mutational burden (variant allele frequency) (myeloid mutations): Reduction in mutational burden (variant allele frequency) was observed for some mutations over others
